We go through 13 molecules from patent publication US10154991B2, “Anesthetic compounds and related methods of use” (priority 2012, dated 2018).

The first assay has as its system rats. Briefly: loss of righting reflexes (LORR) assay after IV bolus. The conditions noted are these: rat, in vivo.
Protocol: Adult male Sprague-Dawley rats (230-350 gm) were purchased from Charles River Laboratories (Wilmington, Mass.) and housed in the Massachusetts General Hospital Center for Comparative Medicine animal care facility. All drugs were administered through a femoral venous catheter pre-implanted by the vendor prior to animal delivery to our animal care facility.
Immediately after injection, rats were turned supine. […] A stopwatch was used to measure the duration of LORR, which was defined as the time from drug injection until the animal spontaneously righted itself.
As for cyclopentyl-methoxycarbonyl metomidate, the “hypnotic potency compared with methoxycarbonyl etomidate and etomidate” value was “nearly an order of magnitude higher than that of methoxycarbonyl etomidate and similar to that of etomidate”; the “in vivo duration of action compared with methoxycarbonyl etomidate and etomidate” value is “intermediate between those of methoxycarbonyl etomidate and etomidate”.
Consider `COC(=O)C1(OC(=O)c2cncn2[C@H](C)c2ccccc2)CCC1` [Cyclobutyl-MOC-metomidate, cyclobutyl-methoxycarbonyl metomidate], for which the “hypnotic potency compared with methoxycarbonyl etomidate and etomidate” value is “nearly an order of magnitude higher than that of methoxycarbonyl etomidate and similar to that of etomidate”; the “in vivo duration of action compared with methoxycarbonyl etomidate and etomidate” value was “intermediate between those of methoxycarbonyl etomidate and etomidate”.

The test system of the next assay is Sprague-Dawley rats. Briefly: In vivo sedative/hypnotic testing, IV bolus, rats. Details: species or system rat. The conditions noted are these: IV bolus, doses as in the cell. The protocol:
(§1) Animals were housed in a dedicated room at the vivarium of VivoPath Inc., located at Redstone Center, 55 Union Street, Worcester, Mass. Housing and care was as specified in the USDA Animal Welfare Act (9 CFR, Parts 1, 2, and 3) and as described in the Guide for the Care and Use of Laboratory Animals from the National Research Council. Environmental conditions of housing rooms are set at the following ranges: temperature: 70±7° F. (22±4° C.), humidity: 50±20%, light cycle: 12-hour light/12-hour dark cycle—lights on at 7 am and off at 7 pm., air changes: ten or more air changes per hour with 100% fresh air. The animals' body weights were measured prior to the first dose on each experimental day.
Adult male Sprague-Dawley rats (225-300 g) were purchased from Harlan (South Easton, Mass.).
(§2) Drugs were prepared in either dimethylsulfoxide/saline or saline vehicle or hydroxypropyl-β-cyclodextrin (20% in water, pH 7.0) solution and were administered as an intravenous bolus injection. Animals received 1-4 doses of drug(s) during an experimental day, either ascending doses or different drugs. Doses were administered at intervals equal to the longer of 1 h or 10-times the duration of apparent sedative/hypnotic effects from the previous dose. The sedative/hypnotic properties of the drugs were evaluated by observation of the rats, ranging from mild excitation, mild sedation apparent due to reduced activity, and moderate sedation to hypnosis reflected by loss of righting reflex (LORR, the ability to place rear and hind legs under the body, as well as attenuation/loss of nociceptive reflexes).
As for `CCOC(=O)c1cncn1[C@H](C)c1ccccc1` [drawing 81], the Rat response entry was “Sedation/hypnosis induced at 2 & 4 mg/kg IV”.
Turning to `COC(=O)C1(OC(=O)c2cncn2[C@H](C)c2ccccc2)CCN(C)CC1`, the Rat response result is given as “No effect apparent at 4, 8 & 16 mg/kg”.
On to `COC(=O)C1(OC(=O)c2cncn2[C@H](C)c2ccccc2)CCCC1`, for which the Rat response result is “Sedative at 1 & 2 mg/kg, with rear paws out but head and forepaws mobile Hypnotic at 4 & 8 mg/kg, quite long-acting”.
For the molecule `COC(=O)C1(OC(=O)c2cncn2[C@H](C)c2ccccc2)CCNCC1`, the Rat response entry is listed as “No effect apparent at 4, 8 & 16 mg/kg”.
As to `COC(=O)C1(OC(=O)c2cncn2[C@H](C)c2ccccc2)CC1` [drawing 83], the Rat response entry is listed as “Sedation/hypnosis induced at 2 & 4 mg/kg IV”.
Same read-out and setting: the value for `COC(=O)C1(OC(=O)c2cncn2[C@H](C)c2ccccc2)CCCCC1` was “Mildly sedative at 4 mg/kg Hypnotic at 8 mg/kg - deep and long-acting”.
As for `COC(=O)C1(OC(=O)c2cncn2[C@H](C)c2ccccc2)CCC1` [Cyclobutyl-MOC-metomidate, cyclobutyl-methoxycarbonyl metomidate], the Rat response entry is “Sedation/hypnosis induced at 1, 2, 4 & 8 mg/kg IV”.
With `COC(=O)C1(OC(=O)c2cncn2[C@H](C)c2ccccc2)CCOCC1`, the Rat response result is given as “Mildly sedative at 16 mg/kg More profound short-acting sedation at 32 mg/kg”.

The assay is the same for the next values; noted with them: Rattus norvegicus; sedation/hypnosis, IV.
In turn, `CCOC(=O)c1cncn1[C@H](C)c1ccccc1` [drawing 81] yielded an ED50 of roughly 0.7 mg/kg.
On to `COC(=O)C1(OC(=O)c2cncn2[C@H](C)c2ccccc2)CC1` [drawing 83], for which the ED50 was roughly 0.7 mg/kg.
With `COC(=O)C1(OC(=O)c2cncn2[C@H](C)c2ccccc2)CCC1` [Cyclobutyl-MOC-metomidate, cyclobutyl-methoxycarbonyl metomidate], the ED50 is roughly 1 mg/kg.

Still in this assay, the particulars now being: rats.
Turning to `COC(=O)C1(OC(=O)c2cncn2[C@H](C)c2ccccc2)CCC1` [Cyclobutyl-MOC-metomidate, cyclobutyl-methoxycarbonyl metomidate], the “slope of duration of LORR vs logarithm of dose” value was roughly 5.

In another assay the test system is beagle dogs.
Experiment: not given
The note with it: dog, in vivo. The protocol: A pilot study was conducted in dogs to assess anesthesia induced by cyclopropyl-MOC-metomidate continuous infusion without a bolus induction dosing. Two dogs received cyclopropyl-MOC-metomidate as a 1 mg/kg/min IV infusion without prior bolus administration.
Anesthesia induction was determined using the methods described above.
Etomidate was administered to dogs at IV bolus doses ranging from 0.25 to 2 mg/kg. Anesthesia in the dogs was measured as described above. […] The bolus dose of 2 mg/kg was adopted to induce anesthesia prior to subsequent continuous infusions.
Propofol was administered to dogs as an IV bolus dose of 5 mg/kg to induce anesthesia followed by a continuous infusion at 0.4 mg/kg/min.
For `CC(C)c1cccc(C(C)C)c1O` [Propofol], the “emergence from anesthesia after the end of infusion” value is listed as “approximately 15 minutes”, the “recovery of normal behavior after infusion” value was no less than 30 min and the “recovery time relative to cyclopropyl-MOC-metomidate infusion of the same duration” value is reported as “approximately 3 fold”.

The subject of a further assay is ICR mice. Briefly: In vivo sedative/hypnotic testing, IV bolus, mice. Details: species or system mouse. The note with it: IV bolus, doses as in the cell. The protocol:
as §1
Adult ICR mice (20-30 g) were purchased from Harlan (South Easton, Mass.). Drugs were administered as intravenous bolus injection in a tail vein.
as §2
As to `COC(=O)c1ccccc1OC(=O)c1cncn1[C@H](C)c1ccccc1`, the Mouse response entry is given as “Mild excitation but no sedation at 2, 4 or 8 mg/kg IV”.
The same measure, in the same setting: next, `CCOC(=O)c1cncn1[C@H](C)c1ccccc1` [drawing 81]: “Sedation/hypnosis induced at 2 & 4 mg/kg IV”; `COC(=O)C(OC(=O)c1cncn1[C@H](C)c1ccccc1)C1CC1` (stereo partly drawn): “Sedation/hypnosis induced at 8, 16 & 32 mg/kg IV”; `COC(=O)C1(OC(=O)c2cncn2[C@H](C)c2ccccc2)CC1` [drawing 83]: “Sedation/hypnosis induced at 2 & 4 mg/kg IV”.
With `COC(=O)C1(OC(=O)c2cncn2[C@H](C)c2ccccc2)CCC1` [Cyclobutyl-MOC-metomidate, cyclobutyl-methoxycarbonyl metomidate], the Mouse response entry is “Sedation/hypnosis induced at 2, 4 & 8 mg/kg IV”.
Take `C[C@H](c1ccccc1)n1cncc1C(=O)OC1(C(=O)OC2COC2)CC1`: the Mouse response entry is recorded as “No effect at 4 mg/kg IV”.

The same assay, now with this note: Mus musculus; sedation/hypnosis, IV.
With `CCOC(=O)c1cncn1[C@H](C)c1ccccc1` [drawing 81], the ED50 is roughly 0.7 mg/kg.
Take `COC(=O)C(OC(=O)c1cncn1[C@H](C)c1ccccc1)C1CC1` (stereo partly drawn): the ED50 is roughly 8 mg/kg.
Same read-out and setting: the value for `COC(=O)C1(OC(=O)c2cncn2[C@H](C)c2ccccc2)CC1` [drawing 83] was roughly 0.7 mg/kg.
Molecule `COC(=O)C1(OC(=O)c2cncn2[C@H](C)c2ccccc2)CCC1` [Cyclobutyl-MOC-metomidate, cyclobutyl-methoxycarbonyl metomidate] gave an ED50 of 1 to 2 mg/kg.

Still in this assay, the particulars now being: mice.
With `COC(=O)C1(OC(=O)c2cncn2[C@H](C)c2ccccc2)CCC1` [Cyclobutyl-MOC-metomidate, cyclobutyl-methoxycarbonyl metomidate], the “slope of duration of LORR vs logarithm of dose” value is given as “approximately 7”.

As a reminder, the ED50 is the dose at which the effect has come halfway, by size or by number of responders.
